Results published in patent US8530406B2, “HMG-CoA reductase derived peptide and cosmetic or pharmaceutical composition containing same” (ISP Investments Inc., priority 2008, dated 2013).
No end group written: not given here.

Legend:
Format in all cases: cell-based
[1] = tested on: normal human dermal fibroblasts; assay: Ultrastructural study of caveolae in human fibroblasts; conditions: 0.5 ppm peptide, 48 hours
Experimental: The goal of this study is to study at the ultrastructural level the caveolae in human dermal fibroblasts.
Normal human dermal fibroblasts in culture are treated with a 1% stock solution at 50 ppm of peptide SEQ ID No. 4 for 48 hours (the medium in the presence of the active ingredient is changed every 24 hours).

HMG-CoA reductase [2] = assay: Expression of HMG-CoA reductase in normal human keratinocytes (immunofluorescence); conditions: 0.5 ppm peptide, 48 hours
Experimental: The goal of this study is to determine the influence of peptide SEQ ID No. 4 on the expression of HMG-CoA reductase in normal human keratinocytes.
Normal human dermal keratinocytes in culture are treated with a 1% stock solution at 50 ppm of peptide SEQ ID No. 4 for 48 hours (the medium in the presence of the active ingredient is changed every 24 hours). The cells are then washed and fixed in cold methanol for 4 minutes at 4° C. The cells are incubated in the presence of a polyclonal rabbit antibody specific for HMG-CoA reductase (Millipore, Upstate), and then a secondary antibody coupled with a fluorescent dye. The cells are then examined by epifluorescence microscope (Nikon Eclipse E600 microscope).

HMG-CoA reductase [3] = assay: Expression of HMG-CoA reductase in skin biopsies (immunolabelling); conditions: 0.5 ppm peptide applied topically, human skin samples in culture, 24 hours or 48 hours
Experimental: The goal of this study is to determine the influence of peptide SEQ ID No. 5 on the expression of HMG-CoA reductase.
Samples of human skin are placed in culture at the air/liquid interface. A 1% stock solution at 50 ppm of peptide SEQ ID No. 5 is applied topically and then the samples are incubated for 24 hours or 48 hours.
These skin samples are then fixed with formaldehyde and then enclosed in paraffin. Sections of 2 to 3 μm are then made Immunolabelling is carried out after unmasking the specific sites by microwave treatment and then incubation in trypsin Immunolabelling is carried out by using a polyclonal rabbit antibody specific for HMG-CoA reductase (Millipore, Upstate), and then a secondary antibody, coupled with a fluorescent dye. The skin sections are then examined by epifluorescence microscope (Nikon Eclipse E600 microscope).

[4] = tested on: normal human keratinocytes; assay: Differentiation study of human keratinocytes (pankeratin immunofluorescence); conditions: 0.5 ppm peptide, 48 hours, epifluorescence
Experimental: The goal of this study is to determine the influence of peptide SEQ ID No. 5 on epidermal differentiation.
Normal human keratinocytes in culture are treated with a 1% stock solution at 50 ppm of peptide SEQ ID No. 4 for 48 hours (the medium in the presence of the active ingredient is changed every 24 hours). The cells are then washed and fixed with cold methanol for 4 minutes at 4° C.

[5] = tested on: normal human keratinocytes; assay: Ultrastructural study (transmission electron microscopy) of lamellar bodies in human keratinocytes; conditions: 0.5 ppm peptide
Experimental: The goal of this study is to study in an ultrastructural manner, in transmission electron microscopy, keratinocytes treated by peptide SEQ ID No. 5 at 0.5 ppm.
Normal human keratinocytes in culture are treated with a 1% stock solution at 50 ppm of peptide SEQ ID No. 5 for 48 hours (the medium in the presence of the active ingredient is changed every 24 hours). The cells are washed in PBS, and then are fixed by Karnosky hypertonic fixation (4% paraformaldehyde, 5% glutaraldehyde in a 0.08M phosphate buffer) 1 hour at ambient temperature and then 24 hours at 4° C. The cells are detached from the support by scraping and centrifuged 5 minutes at 1000 rpm. The supernatant is eliminated and a 1M sodium cacodylate buffer is deposited on the residue. The cells are mixed with 2% agar and then postfixed by osmium tetraoxide for 1 hour. The specimens are then dehydrated by successive passages in a series of alcohol (from 50 to 100%). The cells are then coated in a resin. The polymerization is carried out for approximately 12 hours at 60° C. Semi-thin sections of 0.5 μm are made with an ultramicrotome. The sections are deposited on a heat bonded slide and then colored with toluidine blue. The slides are then dehydrated again and mounted in a suitable medium. After having chosen the optimal study zone, the block is recut to the desired size and ultrathin sections are then made, only sections with a silver-grey color and a suitable size are mounted on the electron microscopy grid labeled with both uranyl acetate and lead citrate, and are examined by transmission electron microscope at 60 or 80 KV.

[6] = 48 hours, transmission electron microscopy

HMG-CoA reductase cytoplasmic fluorescence (HMG-CoA reductase [2])	HMG-CoA reductase fluorescence in the upper layers of the epidermis versus untreated control (HMG-CoA reductase [3])	Substance	caveolae versus untreated control cells [1]	expression of pankeratins [4]	Golgi complex development versus control cells [5, 6]	production of lamellar bodies (Odland bodies) [5, 6]	lipid synthesis ([5]; inferred from ultrastructure)
more intense cytoplasmic fluorescence		Ala-Gly-Glu-Leu-Ser (AGELS) [SEQ ID No. 4]	significant increase in caveolae				
	stronger fluorescence	Ala-Gly-Glu-Leu-Ser-NH2 (AGELS-NH2) [SEQ ID No. 5]		increases the expression of pankeratins	substantially more developed	excess production of lamellar bodies	increase in lipid synthesis
